Patent publication US20260137703A1, “2-AMINO-PYRIDO[2,3-D]PYRIMIDIN-7(8H)-ONE AND 7-AMINO-1-PYRIMIDO[4,5-D]PYRIMIDIN-2(1 H)-ONE DERIVATIVES AS EGFR INHIBITORS FOR THE TREATMENT OF CANCER” (Cancer Research Technology Limited, priority 2022, published 2026)
Read-outs that look alike come from different tables or passages of the source. One block for each molecule: values may come before it.

Tests used:
[1] = other bond, THF
[2] = target: T1, Phospho-EGFR (Tyr1068) in H1975 cells (Homo sapiens, UniProt P00533, L858R/T790M); test: HTRF pEGFR/total EGFR in H1975 cells; format: cell-based; details: ratio pEGFR/total EGFR, compound 3 hours
T1 construct: host or cells: H1975
T1 sequence (P00533 25-1210 T790M/L858R): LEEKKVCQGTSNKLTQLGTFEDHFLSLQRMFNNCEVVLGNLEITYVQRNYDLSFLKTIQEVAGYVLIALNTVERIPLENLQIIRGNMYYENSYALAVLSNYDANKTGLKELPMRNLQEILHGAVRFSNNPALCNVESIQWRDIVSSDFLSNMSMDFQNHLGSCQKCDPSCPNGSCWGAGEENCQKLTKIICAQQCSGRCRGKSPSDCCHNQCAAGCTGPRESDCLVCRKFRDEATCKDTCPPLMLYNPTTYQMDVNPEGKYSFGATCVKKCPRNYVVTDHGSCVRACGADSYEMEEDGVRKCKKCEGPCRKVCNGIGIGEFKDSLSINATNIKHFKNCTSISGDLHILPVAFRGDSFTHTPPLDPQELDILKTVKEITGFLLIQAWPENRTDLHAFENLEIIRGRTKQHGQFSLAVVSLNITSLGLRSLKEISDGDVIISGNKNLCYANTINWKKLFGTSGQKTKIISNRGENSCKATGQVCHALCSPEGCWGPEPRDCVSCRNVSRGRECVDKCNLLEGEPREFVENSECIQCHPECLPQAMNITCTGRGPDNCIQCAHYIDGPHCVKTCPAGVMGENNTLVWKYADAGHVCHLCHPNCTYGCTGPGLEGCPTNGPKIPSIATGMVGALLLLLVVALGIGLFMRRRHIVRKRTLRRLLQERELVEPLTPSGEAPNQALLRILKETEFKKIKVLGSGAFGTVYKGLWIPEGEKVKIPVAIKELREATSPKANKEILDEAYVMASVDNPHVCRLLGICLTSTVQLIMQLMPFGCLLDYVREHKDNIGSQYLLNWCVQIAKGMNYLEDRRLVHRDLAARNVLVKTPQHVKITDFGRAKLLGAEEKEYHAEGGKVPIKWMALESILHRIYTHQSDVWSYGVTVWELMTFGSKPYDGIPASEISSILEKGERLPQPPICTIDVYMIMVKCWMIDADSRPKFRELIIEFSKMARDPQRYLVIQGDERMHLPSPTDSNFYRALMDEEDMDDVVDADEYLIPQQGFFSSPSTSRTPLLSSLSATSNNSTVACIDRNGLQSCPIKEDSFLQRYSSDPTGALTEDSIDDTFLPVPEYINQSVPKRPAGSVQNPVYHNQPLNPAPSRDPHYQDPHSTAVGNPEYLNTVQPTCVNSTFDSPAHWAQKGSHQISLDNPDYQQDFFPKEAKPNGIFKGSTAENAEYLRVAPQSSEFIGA
How it was run: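 Readout is the phospho-EGFR (Tyr1068) to total EGFR HTRF ratio, expressed relative to 0 μM control. Adhered H1975 cells were exposed to compound for 3 hours at 0.1% DMSO, duplicate wells, then lysed for 30 min at room temperature before two-wavelength fluorescence reading.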

[3] = target: T2, Phospho-EGFR (Tyr1068) in H1975 C797S cells (CRISPR-edited EGFR C797S) (Homo sapiens, UniProt P00533, C797S/L858R/T790M); test: HTRF pEGFR/total EGFR in H1975 C797S cells; format: cell-based; details: ratio pEGFR/total EGFR, compound 3 hours
T2 construct: host or cells: H1975 C797S (CRISPR-edited)
T2 sequence (P00533 25-1210 T790M/C797S/L858R): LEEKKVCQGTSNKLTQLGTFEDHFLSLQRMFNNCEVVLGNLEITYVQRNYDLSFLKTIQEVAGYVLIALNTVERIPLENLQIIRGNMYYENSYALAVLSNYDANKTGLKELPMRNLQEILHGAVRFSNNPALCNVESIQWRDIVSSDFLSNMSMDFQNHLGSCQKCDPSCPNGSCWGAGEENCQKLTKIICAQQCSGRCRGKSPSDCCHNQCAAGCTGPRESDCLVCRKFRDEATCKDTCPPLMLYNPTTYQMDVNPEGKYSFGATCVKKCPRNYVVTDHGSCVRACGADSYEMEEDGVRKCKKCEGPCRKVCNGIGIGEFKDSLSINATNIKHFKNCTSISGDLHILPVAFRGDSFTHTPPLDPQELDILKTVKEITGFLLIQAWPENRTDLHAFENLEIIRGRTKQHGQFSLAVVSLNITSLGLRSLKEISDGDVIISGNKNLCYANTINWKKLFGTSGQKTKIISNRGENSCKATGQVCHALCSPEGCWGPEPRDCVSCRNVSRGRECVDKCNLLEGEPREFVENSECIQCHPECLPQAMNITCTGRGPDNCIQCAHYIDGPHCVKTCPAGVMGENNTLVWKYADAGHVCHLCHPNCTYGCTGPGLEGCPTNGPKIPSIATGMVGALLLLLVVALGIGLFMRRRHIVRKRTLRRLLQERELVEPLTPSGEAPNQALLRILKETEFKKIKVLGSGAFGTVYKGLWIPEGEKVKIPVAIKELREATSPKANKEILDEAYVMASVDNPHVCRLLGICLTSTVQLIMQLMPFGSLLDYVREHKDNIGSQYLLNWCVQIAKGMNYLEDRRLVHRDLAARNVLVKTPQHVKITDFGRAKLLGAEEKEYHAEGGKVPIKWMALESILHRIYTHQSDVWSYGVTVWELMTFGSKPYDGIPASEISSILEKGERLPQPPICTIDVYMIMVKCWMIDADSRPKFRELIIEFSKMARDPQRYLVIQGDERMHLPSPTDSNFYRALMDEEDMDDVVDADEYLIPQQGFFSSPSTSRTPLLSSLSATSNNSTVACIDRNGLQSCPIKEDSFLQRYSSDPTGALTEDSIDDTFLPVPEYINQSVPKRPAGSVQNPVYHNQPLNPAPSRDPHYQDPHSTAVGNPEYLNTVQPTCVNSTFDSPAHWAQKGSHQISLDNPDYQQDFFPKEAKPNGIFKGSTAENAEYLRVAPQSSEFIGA
How it was run: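 Readout is the HTRF-measured Tyr1068 phospho-EGFR to total EGFR ratio, normalised to the 0 μM control as percent. Preceding this, CRISPR-edited H1975 C797S cells, plated 24 h earlier, were exposed 3 h to duplicate compound doses in medium with 0.1% DMSO, then lysed on a shaker.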

[4] = target: T3, Phospho-EGFR (Tyr1068) in A431 cells (Homo sapiens, UniProt P00533); test: HTRF pEGFR/total EGFR in A431 cells with EGF stimulation; format: cell-based; details: ratio pEGFR/total EGFR, compound 2.5 hours then 100 ng/ml EGF 30 mins
T3 construct: endogenous in cells; host or cells: A431
T3 sequence (P00533 25-1210): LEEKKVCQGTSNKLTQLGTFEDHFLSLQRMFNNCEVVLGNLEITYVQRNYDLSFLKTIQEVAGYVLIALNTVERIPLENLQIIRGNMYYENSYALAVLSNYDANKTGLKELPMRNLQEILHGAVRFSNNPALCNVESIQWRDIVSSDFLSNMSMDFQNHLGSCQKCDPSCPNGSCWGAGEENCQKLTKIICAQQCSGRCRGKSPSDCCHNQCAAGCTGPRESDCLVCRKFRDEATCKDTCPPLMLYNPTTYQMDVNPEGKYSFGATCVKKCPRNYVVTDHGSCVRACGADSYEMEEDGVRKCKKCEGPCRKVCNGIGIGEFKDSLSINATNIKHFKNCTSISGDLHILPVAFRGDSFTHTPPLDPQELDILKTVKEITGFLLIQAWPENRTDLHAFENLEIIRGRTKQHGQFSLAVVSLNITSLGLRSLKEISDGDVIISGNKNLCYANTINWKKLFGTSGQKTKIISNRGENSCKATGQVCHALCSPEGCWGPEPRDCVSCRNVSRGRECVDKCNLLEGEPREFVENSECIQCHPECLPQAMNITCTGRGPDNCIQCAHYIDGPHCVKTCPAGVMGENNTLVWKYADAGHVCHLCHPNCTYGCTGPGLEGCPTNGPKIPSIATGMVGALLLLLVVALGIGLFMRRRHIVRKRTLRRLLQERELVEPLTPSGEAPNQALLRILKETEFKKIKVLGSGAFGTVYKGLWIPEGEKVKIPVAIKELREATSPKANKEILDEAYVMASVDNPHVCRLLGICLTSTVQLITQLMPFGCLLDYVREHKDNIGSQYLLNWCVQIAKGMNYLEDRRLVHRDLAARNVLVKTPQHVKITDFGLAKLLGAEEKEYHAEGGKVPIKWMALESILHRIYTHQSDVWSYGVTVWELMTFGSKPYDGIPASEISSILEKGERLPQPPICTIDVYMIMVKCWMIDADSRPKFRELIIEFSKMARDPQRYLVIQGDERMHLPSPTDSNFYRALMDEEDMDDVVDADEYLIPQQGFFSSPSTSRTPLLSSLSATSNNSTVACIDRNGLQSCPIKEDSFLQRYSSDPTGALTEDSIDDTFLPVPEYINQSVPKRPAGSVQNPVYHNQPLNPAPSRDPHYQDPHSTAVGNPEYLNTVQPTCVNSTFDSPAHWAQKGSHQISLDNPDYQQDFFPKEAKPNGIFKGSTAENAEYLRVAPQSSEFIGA
How it was run: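 Values are pEGFR(Tyr1068)/total EGFR HTRF ratios (665/620 nm) given as percent of the 0 μM control. Adhered A431 cells (20,000 per well, 24 h) had 2.5 h compound pretreatment in 0.1% DMSO, then 30 min of 100 ng/ml EGF before lysis.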

[5] = target: CtermHisTag-mEGFR Wild type (Homo sapiens, UniProt P00533); test: biochemical
Sequence of CtermHisTag-mEGFR Wild type (P00533 whole entry): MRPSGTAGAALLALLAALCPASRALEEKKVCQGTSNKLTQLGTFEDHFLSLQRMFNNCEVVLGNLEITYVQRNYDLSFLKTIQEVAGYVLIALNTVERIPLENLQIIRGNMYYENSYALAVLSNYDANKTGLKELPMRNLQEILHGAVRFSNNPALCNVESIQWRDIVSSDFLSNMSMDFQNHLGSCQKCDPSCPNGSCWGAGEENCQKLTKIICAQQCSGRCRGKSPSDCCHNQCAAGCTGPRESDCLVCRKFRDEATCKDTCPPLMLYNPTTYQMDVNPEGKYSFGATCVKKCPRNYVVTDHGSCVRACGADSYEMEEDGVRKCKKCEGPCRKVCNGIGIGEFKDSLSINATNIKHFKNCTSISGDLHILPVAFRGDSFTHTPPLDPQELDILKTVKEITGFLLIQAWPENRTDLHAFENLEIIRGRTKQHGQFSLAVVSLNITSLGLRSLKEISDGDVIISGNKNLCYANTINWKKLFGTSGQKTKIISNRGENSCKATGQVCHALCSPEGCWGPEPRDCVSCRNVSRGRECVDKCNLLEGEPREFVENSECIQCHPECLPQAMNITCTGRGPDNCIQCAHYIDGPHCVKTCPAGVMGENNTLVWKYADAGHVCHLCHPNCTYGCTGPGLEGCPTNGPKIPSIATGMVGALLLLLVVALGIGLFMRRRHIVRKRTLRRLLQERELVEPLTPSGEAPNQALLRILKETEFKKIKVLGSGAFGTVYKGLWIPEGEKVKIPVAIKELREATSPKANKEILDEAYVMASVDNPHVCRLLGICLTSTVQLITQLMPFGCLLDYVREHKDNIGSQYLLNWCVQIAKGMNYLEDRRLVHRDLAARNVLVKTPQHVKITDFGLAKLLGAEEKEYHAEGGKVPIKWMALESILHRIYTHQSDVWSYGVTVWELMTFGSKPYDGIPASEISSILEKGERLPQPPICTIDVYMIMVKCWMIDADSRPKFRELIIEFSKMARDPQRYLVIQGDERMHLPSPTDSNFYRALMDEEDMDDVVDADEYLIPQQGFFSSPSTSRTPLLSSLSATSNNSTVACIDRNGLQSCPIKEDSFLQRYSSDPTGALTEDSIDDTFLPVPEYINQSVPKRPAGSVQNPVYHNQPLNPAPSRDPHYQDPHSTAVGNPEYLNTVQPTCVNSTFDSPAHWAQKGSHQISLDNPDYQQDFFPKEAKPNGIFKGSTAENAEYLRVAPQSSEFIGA

SMILES: CC(C)N1CCN(c2ccc3cc2NC(=O)CCCn2c(=O)cc(C#C[Si](C(C)C)(C(C)C)C(C)C)c4cnc(nc42)N3)CC1
ring closure, isolated yield ([1]; from CC(C)N1CCN(c2ccc(Nc3ncc4c(C#C[Si](C(C)C)(C(C)C)C(C)C)cc(=O)[nH]c4n3)cc2NC(=O)CCCO)CC1, 13-membered ring, PPh3/DEAD, 72.2 mM): 44%

SMILES: CC(C)[Si](C#Cc1cc(=O)n2c3nc(ncc13)Nc1ccc(N3CCCN(C)CC3)c(c1)NC(=O)CCC2)(C(C)C)C(C)C
ring closure, isolated yield ([1]; from CC(C)[Si](C#Cc1cc(=O)[nH]c2nc(Nc3ccc(N4CCCN(C)CC4)c(NC(=O)CCCO)c3)ncc12)(C(C)C)C(C)C, 13-membered ring, PPh3/DEAD, 31.7 mM): 41%

SMILES: CC(C)[Si](C#Cc1cc(=O)n2c3nc(ncc13)Nc1ccc(N3CCN(C)CC3)c(c1)CC(=O)NCC2)(C(C)C)C(C)C
ring closure, isolated yield ([1]; from CC(C)[Si](C#Cc1cc(=O)[nH]c2nc(Nc3ccc(N4CCN(C)CC4)c(CC(=O)NCCO)c3)ncc12)(C(C)C)C(C)C, 13-membered ring, PPh3/DIAD, 24.0 mM): 43%

SMILES: CC(C)[Si](C#Cc1cc(=O)n2c3nc(ncc13)Nc1ccc(N3CCN(C)CC3)c(c1)CN(C)CCC2)(C(C)C)C(C)C
ring closure, isolated yield ([1]; from CC(C)[Si](C#Cc1cc(=O)[nH]c2nc(Nc3ccc(N4CCN(C)CC4)c(CN(C)CCCO)c3)ncc12)(C(C)C)C(C)C, 13-membered ring, PPh3/DIAD, 24.4 mM): 50%

SMILES: CC(C)[Si](C#Cc1cc(=O)n2c3nc(ncc13)Nc1ccc(N3CCN(C)CC3)c(c1)CNCCC2)(C(C)C)C(C)C
ring closure, isolated yield ([1]; from CC(C)[Si](C#Cc1cc(=O)[nH]c2nc(Nc3ccc(N4CCN(C)CC4)c(CNCCCO)c3)ncc12)(C(C)C)C(C)C, 13-membered ring, PPh3/DIAD, 20.5 mM): 53%

SMILES: CC(C)[Si](C#Cc1cc(=O)n2c3nc(ncc13)Nc1ccc(N3CCN(C)CC3)c(c1)COCCCC2)(C(C)C)C(C)C
ring closure, isolated yield ([1]; from CC(C)[Si](C#Cc1cc(=O)[nH]c2nc(Nc3ccc(N4CCN(C)CC4)c(COCCCCO)c3)ncc12)(C(C)C)C(C)C, 14-membered ring, PPh3/DEAD, 129.0 mM): 28%

SMILES: C#Cc1cc(=O)n2c3nc(ncc13)Nc1ccc(N3CCN(C)CC3)c(c1)N(C)C(=O)CCC2 [Example 225, 1^5-Ethynyl-4-methyl-3^4-(4-methylpiperazin-1-yl)-1^7,1^8-dihydro-2,4-diaza-1(2,8)-pyrido[2,3-d]pyrimidina-3(1,3)-benzenacyclooctaphane-1^7,5-dione]
IC50 [2]: 1 to 3 µM | IC50 [3]: 1 to 3 µM | IC50 [4]: > 3 µM | IC50 [5]: > 10 µM

SMILES: C#Cc1cc(=O)n2c3nc(ncc13)Nc1ccc(N3CCN(C)CC3)c(c1)CCNC(=O)C2 [Example 227, 1^5-Ethynyl-3^4-(4-Methylpiperazin-1-yl)-1^7,1^8-dihydro-2,6-diaza-1(2,8)-pyrido[2,3-d]pyrimidina-3(1,3)-benzenacyclooctaphane-1^7,7-dione]
IC50 [2]: > 3 µM | IC50 [3]: > 3 µM | IC50 [4]: > 3 µM | IC50 [5]: 1 to 10 µM

SMILES: C#Cc1cc(=O)n2c3nc(ncc13)Nc1ccc(N3CCN(C)CC3)c(c1)S(=O)(=O)NCCC2 [Example 234, 1^5-Ethynyl-3^4-(4-methylpiperazin-1-yl)-1^7,1^8-dihydro-4-thia-2,5-diaza-1(2,8)-pyrido[2,3-d]pyrimidina-3(1,3)-benzenacyclooctaphan-1^7-one 4,4-dioxide]
IC50 [2]: 1 to 3 µM | IC50 [3]: 1 to 3 µM | IC50 [4]: > 3 µM | IC50 [5]: < 1 µM

SMILES: C#Cc1cc(=O)n2c3nc(ncc13)Nc1ccc(N3CCN(C)CC3)c(c1)CNC(=O)CCC2 [Example 237, 1^5-Ethynyl-3^4-(4-methylpiperazin-1-yl)-1^7,1^8-dihydro-2,5-diaza-1(2,8)-pyrido[2,3-d]pyrimidina-3(1,3)-benzenacyclononaphane-1^7,6-dione]
IC50 [2]: < 0.5 µM | IC50 [3]: 0.5 to 1 µM | IC50 [4]: > 3 µM | IC50 [5]: < 1 µM

SMILES: C#Cc1cc(=O)n2c3nc(ncc13)Nc1ccc(N3CCCN(C)CC3)c(c1)NC(=O)CCC2 [Example 238, 1^5-Ethynyl-3^4-(4-methyl-1,4-diazepan-1-yl)-1^7,1^8-dihydro-2,4-diaza-1(2,8)-pyrido[2,3-d]pyrimidina-3(1,3)-benzenacyclooctaphane-1^7,5-dione]
IC50 [2]: < 0.5 µM | IC50 [3]: < 0.5 µM | IC50 [4]: > 3 µM | IC50 [5]: < 1 µM

SMILES: C#Cc1cc(=O)n2c3nc(ncc13)Nc1ccc(N3CCN(C)CC3)c(c1)OCCC[C@H]2C [Example 239, (R)-1^5-ethynyl-8-methyl-3^4-(4-methylpiperazin-1-yl)-1^7,1^8-dihydro-4-oxa-2-aza-1(2,8)-pyrido[2,3-d]pyrimidina-3(1,3)-benzenacyclooctaphan-1^7-one]
IC50 [2]: < 0.5 µM | IC50 [3]: < 0.5 µM | IC50 [4]: > 3 µM | IC50 [5]: < 1 µM

SMILES: C#Cc1cc(=O)n2c3nc(ncc13)Nc1ccc(N3CCN(C)CC3)c(c1)CCOCC2 [Example 240, 1^5-Ethynyl-3^4-(4-methylpiperazin-1-yl)-1^7,1^8-dihydro-6-oxa-2-aza-1(2,8)-pyrido[2,3-d]pyrimidina-3(1,3)-benzenacyclooctaphan-1^7-one]
IC50 [2]: < 0.5 µM | IC50 [3]: < 0.5 µM | IC50 [4]: 1 to 3 µM | IC50 [5]: < 1 µM

SMILES: C#Cc1cc(=O)n2c3nc(ncc13)Nc1ccc(N3CCN(CCOC)CC3)c(c1)OCCCC2 [Example 241, 1^5-Ethynyl-3^4-(4-(2-methoxyethyl)piperazin-1-yl)-1^7,1^8-dihydro-4-oxa-2-aza-1(2,8)-pyrido[2,3-d]pyrimidina-3(1,3)-benzenacyclooctaphan-1^7-one]
IC50 [2]: < 0.5 µM | IC50 [3]: < 0.5 µM | IC50 [4]: 0.5 to 1 µM | IC50 [5]: < 1 µM

The remaining lines, values ahead:

IC50 [2]: < 0.5 µM | IC50 [3]: < 0.5 µM | IC50 [4]: > 3 µM | IC50 [5]: < 1 µM
SMILES: C#Cc1cc(=O)n2c3nc(ncc13)Nc1ccc(N3CCN(C)CC3)c(c1)CN(C)CCC2 [Example 226, 1^5-Ethynyl-5-methyl-3^4-(4-methylpiperazin-1-yl)-1^7,1^8-dihydro-2,5-diaza-1(2,8)-pyrido[2,3-d]pyrimidina-3(1,3)-benzenacyclooctaphan-1^7-one]

IC50 [2]: < 0.5 µM | IC50 [3]: < 0.5 µM | IC50 [4]: > 3 µM | IC50 [5]: 1 to 10 µM
SMILES: C#Cc1cc(=O)n2c3nc(ncc13)Nc1ccc(N3CCN(C)CC3)c(c1)OCCCCC2C (stereo not shown) [Example 228, 1^5-Ethynyl-9-methyl-3^4-(4-methylpiperazin-1-yl)-1^7,1^8-dihydro-4-oxa-2-aza-1(2,8)-pyrido[2,3-d]pyrimidina-3(1,3)-benzenacyclononaphan-17-one]

IC50 [2]: < 0.5 µM | IC50 [3]: < 0.5 µM | IC50 [4]: < 0.5 µM | IC50 [5]: < 1 µM
SMILES: C#Cc1c(C)c(=O)n2c3nc(ncc13)Nc1ccc(N3CCN(C)CC3)c(c1)OCCCCC2 [Example 229, 1^5-Ethynyl-1^6-Methyl-3^4-(4-methylpiperazin-1-yl)-1^7,1^8-dihydro-4-oxa-2-aza-1(2,8)-pyrido[2,3-d]pyrimidina-3(1,3)-benzenacyclononaphan-1^7-one]

IC50 [2]: < 0.5 µM | IC50 [3]: < 0.5 µM | IC50 [4]: 1 to 3 µM | IC50 [5]: < 1 µM
SMILES: C#Cc1cc(=O)n2c3nc(ncc13)Nc1ccc(N3CCN(C)CC3)c(c1)OCCCCCC2 [Example 230, 1^5-ethynyl-3^4-(4-methylpiperazin-1-yl)-1^7,1^8-dihydro-4-oxa-2-aza-1(2,8)-pyrido[2,3-d]pyrimidina-3(1,3)-benzenacyclodecaphan-1^7-one]

IC50 [2]: < 0.5 µM | IC50 [3]: < 0.5 µM | IC50 [4]: 1 to 3 µM | IC50 [5]: < 1 µM
SMILES: C#Cc1cc(=O)n2c3nc(ncc13)Nc1ccc(N3CCN(C)CC3)c(c1)COCCCC2 [Example 231, 1^5-Ethynyl-3^4-(4-methylpiperazin-1-yl)-1^7,1^8-dihydro-5-oxa-2-aza-1(2,8)-pyrido[2,3-d]pyrimidina-3(1,3)-benzenacyclononaphan-1^7-one]

IC50 [2]: < 0.5 µM | IC50 [3]: < 0.5 µM | IC50 [4]: > 3 µM | IC50 [5]: < 1 µM
SMILES: C#Cc1cc(=O)n2c3nc(ncc13)Nc1ccc(N3CCN(C)CC3)c(c1)OCCOCC2 [Example 232, 1^5-Ethynyl-3^4-(4-Methylpiperazin-1-yl)-1^7,1^8-dihydro-4,7-dioxa-2-aza-1(2,8)-pyrido[2,3-d]pyrimidina-3(1,3)-benzenacyclononaphan-1^7-one]

IC50 [2]: < 0.5 µM | IC50 [3]: < 0.5 µM | IC50 [4]: 0.5 to 1 µM | IC50 [5]: < 1 µM
SMILES: C#Cc1cc(=O)n2c3nc(ncc13)Nc1ccc(N3CCN(C(C)C)CC3)c(c1)NC(=O)CCC2 [Example 235, 1^5-Ethynyl-3^4-(4-isopropylpiperazin-1-yl)-1^7,1^8-dihydro-2,4-diaza-1(2,8)-pyrido[2,3-d]pyrimidina-3(1,3)-benzenacyclooctaphane-1^7,5-dione]

IC50 [2]: < 0.5 µM | IC50 [3]: < 0.5 µM | IC50 [4]: 1 to 3 µM | IC50 [5]: < 1 µM
SMILES: C#Cc1cc(=O)n2c3nc(ncc13)Nc1ccc(N3CCN(CCOC)CC3)c(c1)NC(=O)CCC2 [Example 236, 1^5-Ethynyl-3^4-(4-(2-methoxyethyl)piperazin-1-yl)-1^7,1^8-dihydro-2,4-diaza-1(2,8)-pyrido[2,3-d]pyrimidina-3(1,3)-benzenacyclooctaphane-1^7,5-dione]
